Assay results: patent US20210300943A1, “OGA INHIBITOR COMPOUNDS” (Janssen Pharmaceutica NV, priority 2018, published 2021)
Structures can show the parent of a compound that is named as a salt.

Key:
[1] = target: T1, recombinant human Meningioma Expressed Antigen 5 (MGEA5), also referred to as O-GlcNAcase (OGA) (Homo sapiens, UniProt O60502); assay: OGA biochemical assay (inhibition of FM-GlcNAc hydrolysis, fluorescence)
T1 construct: Full length OGA enzyme was purchased at OnGene (cat #TP322411); purchased OnGene (so in the source)
T1 sequence (O60502 1-916): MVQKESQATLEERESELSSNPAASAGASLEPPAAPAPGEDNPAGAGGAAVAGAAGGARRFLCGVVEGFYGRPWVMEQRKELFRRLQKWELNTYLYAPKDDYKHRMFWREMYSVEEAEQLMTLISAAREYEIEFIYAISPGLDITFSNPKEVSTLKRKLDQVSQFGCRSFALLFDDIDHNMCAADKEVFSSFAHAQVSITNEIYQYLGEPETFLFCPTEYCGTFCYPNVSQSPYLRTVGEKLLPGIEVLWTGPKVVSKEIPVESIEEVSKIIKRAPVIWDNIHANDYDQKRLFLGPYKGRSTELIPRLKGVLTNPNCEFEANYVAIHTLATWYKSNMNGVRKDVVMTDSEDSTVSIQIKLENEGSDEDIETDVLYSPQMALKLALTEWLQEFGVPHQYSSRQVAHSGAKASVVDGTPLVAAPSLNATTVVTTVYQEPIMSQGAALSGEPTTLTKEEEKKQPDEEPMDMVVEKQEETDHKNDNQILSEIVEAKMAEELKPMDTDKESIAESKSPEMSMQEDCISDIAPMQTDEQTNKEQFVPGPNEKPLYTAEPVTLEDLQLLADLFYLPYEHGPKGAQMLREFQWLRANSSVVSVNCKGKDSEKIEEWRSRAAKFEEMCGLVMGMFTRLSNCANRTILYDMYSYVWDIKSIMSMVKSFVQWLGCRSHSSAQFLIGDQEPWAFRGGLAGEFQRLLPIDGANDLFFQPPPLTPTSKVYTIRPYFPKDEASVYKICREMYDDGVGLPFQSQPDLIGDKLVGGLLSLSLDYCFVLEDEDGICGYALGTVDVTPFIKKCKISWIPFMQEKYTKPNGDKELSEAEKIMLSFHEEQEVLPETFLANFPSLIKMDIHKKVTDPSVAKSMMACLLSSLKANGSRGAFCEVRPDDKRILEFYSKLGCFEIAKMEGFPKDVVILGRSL
Procedure, shortened: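 Full-length recombinant OGA (2 nM) pre-incubated with compound 60 min at room temperature, then FM-GlcNAc (100 µM final) added in citrate/phosphate buffer pH 7.2 with 0.005% Tween-20. After 6 h at room temperature, stopped with carbonate pH 11.0; fluorescein read at 485/538 nm; IC50 and Hill coefficient from curve fit.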

OGA = target: T2, OGA (Homo sapiens, UniProt O60502); assay: OGA cellular assay (ICC detection of O-GlcNAcylated proteins in HEK293 cells inducible for P301L mutant human Tau); type: cell-based
T2 construct: endogenous in cells; host or cells: HEK293 cells inducible for P301L mutant human Tau (2N4R)
T2 sequence (O60502 1-916): T1 sequence (O60502 1-916)
Procedure, shortened: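 HEK293 cells inducible for P301L Tau, in low-glucose assay medium, treated 6 h with compound at 0.2% DMSO. O-GlcNAcylated proteins detected by CTD110.6 immunostaining, imaged at 488 nm with Hoechst nuclear counts for toxicity. IC50 from non-linear regression, 200 uM Thiamet G as maximum.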

Row | SMILES | melting point [°C] | Enzymatic Emax (%) ([1]; maximal effect) | IC50 ([1]; read-out: Enzymatic hOGA, pIC50 (converted)) [nM] | Emax (OGA; HEK293, HEK293 cells inducible for P301L mutant human Tau, maximal effect, Thiamet G 200 uM as maximum) [%] | EC50 (OGA; HEK293 cells inducible for P301L mutant human Tau, 6 hours incubation, read-out: Cellular hOGA, pEC50 (converted)) [nM]
1 | COc1cc(NCC2CCCN(C(C)c3ccc4c(n3)OCCO4)C2)cc(C)n1 (stereo not drawn) (as salt: HCl) [Product 23] | 266.7 |  |  |  | 
2 | COc1cc(NCC2CCCN(C(C)c3ccc4c(c3)OCC4)C2)cc(C)n1 (stereo not drawn) (as salt: HCl) [Product 30] | 261.3 |  |  |  | 
3 | COc1cc(NCC2CCCN(C(C)c3cc4c(cc3F)OCCO4)C2)cc(C)n1 (stereo not drawn) (as salt: HCl) [Product 38] | 164.7 |  |  |  | 

Results, then the compound that gave them:

Row | melting point [°C] | Enzymatic Emax (%) ([1]; maximal effect) | IC50 ([1]; read-out: Enzymatic hOGA, pIC50 (converted)) [nM] | Emax (OGA; HEK293, HEK293 cells inducible for P301L mutant human Tau, maximal effect, Thiamet G 200 uM as maximum) [%] | EC50 (OGA; HEK293 cells inducible for P301L mutant human Tau, 6 hours incubation, read-out: Cellular hOGA, pEC50 (converted)) [nM] | SMILES
4 | 235.3 |  |  |  |  | Cc1cc(NCC2CCCN(C(C)c3cc4c(cc3F)OCCO4)C2)cc(C(F)(F)F)n1 (stereo not drawn) (as salt: HCl) [Product 99]
5 | 62.45 | 102 | 39.8 | 45 | > 1000 | Cc1cc(C[C@H]2CCCN(C(C)c3ccc4c(n3)OCC(=O)N4)C2)cc(C)n1 (single isomer, unassigned) [Product 61]
